Test results taken from patent publication US11446287B2, “Compounds and methods for EP300 or CBP modulation and indications therefor” (Opna Immuno-Oncology SA, priority 2019, dated 2022).

Each compound was assayed against T1, Recombinant human CBP containing the bromodomain (CBP-BD (1043-1159)) (Homo sapiens, UniProt Q92793) (assay: CBP Alphascreen binding assay). Conditions: read-out: CREBBP (CBP) IC50.
T1 construct: Recombinant human CBP bromodomain (CBP-BD (1043-1159)); made in house; host or cells: E. coli BL21-CodonPlus (DE3), modified pET vector
T1 sequence (Q92793 1081-1197): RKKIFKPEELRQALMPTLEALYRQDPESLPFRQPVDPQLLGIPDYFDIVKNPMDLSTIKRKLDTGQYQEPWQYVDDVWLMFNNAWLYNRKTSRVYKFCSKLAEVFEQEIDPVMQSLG
Description: CBP Alphascreen Binding Assay
Binding of compounds of Formula (I) with CBP was assessed using Alphascreen™ binding assay. The inhibition of the interaction between the CBP bromodomain and its acetylated target protein was measured quantitatively using recombinant CBP, an acetylated Histone 3 peptide and AlphaScreen™ technology. In absence of inhibition of the CBP protein bound to AlphaScreen™ nickel chelate acceptor beads can interact with the acetylated Histone 3 peptide which was immobilized by the AlphaScreen™ Streptavidin coated beads. This interaction brings donor and acceptor beads in proximity. The close proximity allows the singlet oxygen produced by laser excitation of the donor beads to reach the acceptor beads and generate a luminescence signal. CBP inhibitors result in a decrease in the proximity signal through an inhibition of the CBP—acetylated peptide interaction.
Recombinant human CBP containing the bromodomain (CBP-BD (1043-1159)) was prepared and purified as described in protein expression and purification session. The peptide was human Histone H345-64K56Ac-Biotin (Anaspec CA, USA).
Protocol for CBP assay: All components are prepared in buffer composed of 50 mM HEPES pH 7.5, 50 mM NaCl, 0.01% BSA, 0.01% Triton X-100, 2 mM DTT. Test compounds and DMSO vehicle are diluted 1:50 in buffer and a 4 μL volume was transferred to an Alphaplate. 5.5 μL of CBP protein and 5.5 μL of peptide are added to wells containing 4 μL of various concentrations of test compounds of Formula (I) or DMSO vehicle in an Alphaplate (PerkinElmer GA, USA) and incubated for 1 hour at room temperature. 5 μL donor and acceptor bead mixture was then added with final concentrations of 7.5 μg/ml. 60 minutes after bead addition, Alpha signal was read on the Envision spectrometer (λEx 680 nm, λEm 520-620 nm). Final concentrations of bromodomain proteins and peptide are as shown below.
All data were normalized to the mean of 16 high and 16 low control wells on each plate. A four parameter curve fit of the following formula was then applied: Y=A+((B−A)/(1+((C/x)^D))) Where ‘A’ is the minimum, ‘B’ is the maximum, ‘C’ is the IC50 and ‘D’ is the Hill slope. Protein Expression and Purification
Recombinant human CBP bromodomain (CBP-BD (1043-1159)) was expressed in E. coli cells (in a modified pET vector) with an N-terminal six-His tag and purified using a combination of both IMAC (Ni-affinity) and size exclusion chromatography steps.
Recombinant CBP protein was expressed using the E. coli strain BL21-CodonPlus (DE3) (Agilent Technologies CA, USA). Cells were grown in Terrific Broth (TB) media to an OD600 of 0.92 at 37° C. at which temperature was reduced to 20° C., protein was induced with 1.0 mM isopropyl-β-D-thiogalactopyranoside (“IPTG”) for 20 hours and harvested by centrifugation at 8500×g for 20 minutes. Cells were re-suspended in 0.1M K2PO4 pH 8.0, 250 mM NaCl, 10% Glycerol, 0.75% NP-40, 25 mM Imidazole, with 0.2 mg/ml Lysozyme, 0.2 mM phenylmethanesulfonyl fluoride (“PMSF”), […] (“BME”), 25 μg/ml DNase I, incubated on ice for 30 minutes and lysed with a cell disruptor (MicroFluidics MA, USA). The lysate was clarified by centrifugation at 20,000×g for 1 hour. The protein was captured with Ni-NTA resin (Life Technologies, USA). Contaminating proteins were washed off with 40 mM HEPES pH 7.5, 500 mM NaCl, 5% Glycerol, 5 mM Imidazole, and 5 mM BME. Following 3× wash steps, protein was eluted using 400 mM Imidazole in 40 mM HEPES pH 7.5, 400 mM NaCl, and 5 mM BME. The protein was further purified using a size exclusion column (26/600 Superdex 200, GE Biosciences NJ, USA) in 40 mM HEPES pH 7.5, 250 mM NaCl, 5 mM BME. The protein was aliquoted and flash-frozen in liquid Nitrogen.

First: Cc1ccc(S(=O)(=O)n2cc(-c3ccc(C(=O)O)cc3)c3cc(-c4c(C)noc4C)cnc32)cc1 [P-0006, 4-(5-(3,5-dimethylisoxazol-4-yl)-1-tosyl-1H-pyrrolo[2,3-b]pyridin-3-yl)benzoic acid]
Second: Cc1noc(C)c1-c1cnc2c(c1)c(-c1ccc(C(=O)O)cc1)cn2C(c1ccccn1)C1CC1 (centres unmarked) [P-0007, 4-(1-(cyclopropyl(pyridin-2-yl)methyl)-5-(3,5-dimethylisoxazol-4-yl)-1H-pyrrolo[2,3-b]pyridin-3-yl)benzoic acid]
The IC50 of the first is higher: 1000 to 8000 nM for the first, 0.1 to 1000 nM for the second.

Cc1noc(C)c1-c1cnc2c(c1)c(-c1ccc(C(=O)O)cc1)cn2C(c1ccccn1)C1CCC1 (centres unmarked) [P-0008, 4-(1-(cyclobutyl(pyridin-2-yl)methyl)-5-(3,5-dimethylisoxazol-4-yl)-1H-pyrrolo[2,3-b]pyridin-3-yl)benzoic acid] and Cc1noc(C)c1-c1cnc2c(c1)c(-c1ccc(C(=O)O)cc1)cn2C(c1ccccn1)c1ccccn1 [P-0012, 4-(1-(di(pyridin-2-yl)methyl)-5-(3,5-dimethylisoxazol-4-yl)-1H-pyrrolo[2,3-b]pyridin-3-yl)benzoic acid] fall in the same range of IC50: 0.1 to 1000 nM for the first, 0.1 to 1000 nM for the second.

Cc1noc(C)c1-c1cnc2c(CC3CCC3)cn(-c3ccc(C(=O)O)cn3)c2c1 [P-0009, 6-(3-(cyclobutylmethyl)-6-(3,5-dimethylisoxazol-4-yl)-1H-pyrrolo[3,2-b]pyridin-1-yl)nicotinic acid] and Cc1noc(C)c1-c1cnc2c(CC3CC3)cn(-c3ccc(C(=O)O)cn3)c2c1 [P-0010, 6-(3-(cyclopropylmethyl)-6-(3,5-dimethylisoxazol-4-yl)-1H-pyrrolo[3,2-b]pyridin-1-yl)nicotinic acid] fall in the same range of IC50: 0.1 to 1000 nM for the first, 0.1 to 1000 nM for the second.

Compared with Cc1noc(C)c1-c1cnc2c(Cc3ccccn3)cn(-c3ccc(C(=O)O)cn3)c2c1 [P-0011, 6-(6-(3,5-dimethylisoxazol-4-yl)-3-(pyridin-2-ylmethyl)-1H-pyrrolo[3,2-b]pyridin-1-yl)nicotinic acid], Cc1noc(C)c1-c1cnc2c(Cc3cccc(OC(F)F)c3)cn(-c3ccnc(C(=O)O)c3)c2c1 [P-0100, 4-(3-(3-(difluoromethoxy)benzyl)-6-(3,5-dimethylisoxazol-4-yl)-1H-pyrrolo[3,2-b]pyridin-1-yl)picolinic acid] is lower in IC50: 1000 to 8000 nM for the first, 0.1 to 1000 nM for the second. The second is the more potent here.

Cc1noc(C)c1-c1cnc2c(c1)c(-c1ccc(C(=O)O)cc1F)cn2[C@@H](C)c1ccccn1 [P-0097, (S)-4-(5-(3,5-dimethylisoxazol-4-yl)-1-(1-(pyridin-2-yl)ethyl)-1H-pyrrolo[2,3-b]pyridin-3-yl)-3-fluorobenzoic acid] and COc1cc(C(=O)O)cc(OC)c1-c1cn([C@@H](C)c2ccccn2)c2ncc(-c3c(C)noc3C)cc12 [P-0103, (S)-4-(5-(3,5-dimethylisoxazol-4-yl)-1-(1-(pyridin-2-yl)ethyl)-1H-pyrrolo[2,3-b]pyridin-3-yl)-3,5-dimethoxybenzoic acid] fall in the same range of IC50: 0.1 to 1000 nM for the first, 0.1 to 1000 nM for the second.

COc1ccc(C(=O)O)cc1-n1cc(CC2CCC2)c2ncc(-c3c(C)noc3C)cc21 [P-0098, 3-(3-(cyclobutylmethyl)-6-(3,5-dimethylisoxazol-4-yl)-1H-pyrrolo[3,2-b]pyridin-1-yl)-4-methoxybenzoic acid] and Cc1noc(C)c1-c1cnc2c(c1)c(-c1cccc(C(=O)O)c1)cn2CC1CC(F)(F)C1 [P-0101, 3-(1-((3,3-difluorocyclobutyl)methyl)-5-(3,5-dimethylisoxazol-4-yl)-1H-pyrrolo[2,3-b]pyridin-3-yl)benzoic acid] fall in the same range of IC50: 0.1 to 1000 nM for the first, 0.1 to 1000 nM for the second.

Compared with Cc1noc(C)c1-c1cnc2c(C(=O)c3cccc(OC(F)F)c3)cn(-c3ccnc(C(=O)O)c3)c2c1 [P-0099, 4-(3-(3-(difluoromethoxy)benzoyl)-6-(3,5-dimethylisoxazol-4-yl)-1H-pyrrolo[3,2-b]pyridin-1-yl)picolinic acid], Cc1noc(C)c1-c1cnc2c(c1)c(-c1cccc(C(=O)O)c1)cn2CC1(C)COC1 [P-0102, 3-(5-(3,5-dimethylisoxazol-4-yl)-1-((3-methyloxetan-3-yl)methyl)-1H-pyrrolo[2,3-b]pyridin-3-yl)benzoic acid] is higher in IC50: 0.1 to 1000 nM for the first, 1000 to 8000 nM for the second. The first is the more potent here.
